In publication PMC8567104 (Frontiers in Pharmacology, 2021):
“And” between values parts separate entries of the source, which are not always exact repeats. Equal entries are not always repeated. Where two headings read alike, the source gives them in different places.

Legend:
hNav1.5 [1] = molecular target: T1, hNav1.5 (Homo sapiens, UniProt Q14524); assay: cell-based
Method: (§1) Electrophysiological experiments were performed as previously described ([Ludolph et al., 2010]; [Föhr et al., 2021]). Briefly, tsA201 cells were used for experiments 24–48 h after transfection. Membrane currents were recorded in the whole-cell recording mode using an EPC-9 amplifier and Patchmaster software (v2x73; HEKA, Lambrecht, Germany ([Hamill et al., 1981])). Before recording, cells were rinsed twice with an extracellular standard solution containing (in mM): 140 NaCl, 5 KCl, 1.5 CaCl2, 1.0 MgCl2, 10 glucose and 12 HEPES (4-(2-hydroxyethyl)piperazine- 1-ethanesulfonic acid; pH 7.3). For establishing activation curves, the concentration of NaCl was reduced to 30 mM to achieve current amplitudes in the range of 1 nA. Lacking cations were replaced equimolar by N-Methyl-D-glucamine (NMDG). Patch pipettes were drawn from borosilicate glass with tip resistances of about 2 MΩ when filled with (in mM): 125 CsF, 10 NaCl, 10 EGTA (ethylene glycol-bis(2-aminoethylether)-N,N,N′,N′-tetraacetic acid), 10 HEPES; pH 7.2. To improve sealing, tips were briefly dipped into 2% dimethylsilane dissolved in dichloromethane.
(§2) Unless otherwise stated, the membrane potential was held at −140 mV from which channel activations were elicited by brief depolarizing pulses to −20 mV of 5 ms duration. In order to minimize voltage errors, the series resistance was compensated up to 80%. Cells with currents larger than 6 nA were excluded from evaluation. Specific protocols are illustrated in figure legends where appropriate.

hNav1.5 [2] = molecular target: T1, hNav1.5; assay: Interaction with the inactivated state: steady-state parameters (20 s inactivation at −20 mV); assay type: cell-based; design: expressed in transfected cells; host or cells: tsA201 (HEK293 derivative); details: for Hill-coefficient n: concentration-inhibition curve after 20 s inactivation at −20 mV
Method: as §1, §2
(§3) Concentration-inhibition curves for estimating Kr (IC 50 at −140 mV; Figure 3), Ki (Figures 8, 13, 14), Ko (Figures 12, 17) or K app (Figure 9) were fitted to the Hill-equation.
I D and I C are the current amplitudes in the presence and absence of the drug, where [D] is the concentration of the drug.
To this end, a double pulse protocol was used as outlined by Figure 8B. […] To minimize drift effects during these long-lasting experiments, each run included its own control. Thus, drug effects as measured by the test-pulse were related to the timely executed control activation. […]

hNav1.5 [3] = molecular target: T1, hNav1.5; details: 10 µM
Method: as §1, §2
Recovery time constants were estimated from double or triple exponential fits according to: I/Imax=1−a1∗e^(−t/τ1)−a2∗e^(−t/τ2)−a3∗e^(−t/τ3) (11)
Variable identifiers have the same meaning as before, with a 1 + a 2 + a 3 = 1.
If a drug interacts with the inactivated state (fast or slow), it is expected that also recovery from inactivation is affected. We analyzed this aspect by the use of a tri-pulse experiment (Figure 10B). After an initial control pulse, sufficient time was provided for full recovery. Next channels were inactivated for 500 ms at −20 mV. The test-pulse was initiated after channels had been allowed to recover at a potential of −140 mV for a variable time (range: 0.2 ms to 2.7 s). For evaluation, the current amplitudes of the test-pulses were related to their controls and plotted versus the recovery time (Figure 10A). To describe the time course of recovery, data points were fitted with double exponential functions (Eq. 11). […] In order to estimate recovery from slow inactivation, the experimental scheme was modified to a prolonged inactivation time (10 s) and an expansion of the recovery time up to 32.8 s (Figure 10D).
FIGURE 10 Recovery from inactivation. (A) Recovery from fast inactivation. The relative amount of available channels versus the recovery time at −140 mV is illustrated. Solid lines represent fits with two exponential functions according to Eq. 11. (B) Experimental scheme. After an initial control pulse, inactivation was performed at −20 mV for 500 ms. The test-pulse was applied after a varying time of recovery. For evaluation, current amplitudes of the test-pulses were related to their controls.

hNav1.5 [4] = molecular target: T1, hNav1.5
Method: as §1, §2

hNav1.5 [5] = molecular target: T1, hNav1.5; assay: Voltage-dependence of fast inactivation; assay type: cell-based; design: expressed in transfected cells; host or cells: tsA201 (HEK293 derivative)
Method: as §1, with “dichloromethane. […]” for “dichloromethane.”
FIGURE 5 Voltage-dependence of fast inactivation. […] Voltage-dependence of fast inactivation was determined by measuring sodium currents elicited by 5 ms depolarizations to −20 mV after conditioning pre-pulses for 500 ms to different potentials (range −140 to −45 mV).

[6] = design: method as in Allen et al., 2016; details: weekly oral dose of 625 mg; patients; ref Allen et al., 2016; cited from earlier work
hNav1.5 [7] = molecular target: T1, hNav1.5; assay: Time-dependent development of block (inactivating pre-pulse to −20 mV of variable duration); assay type: cell-based; design: expressed in transfected cells; host or cells: tsA201 (HEK293 derivative); details: for remaining current at the longest inactivation time: inactivation up to 30 s at −20 mV; for time constant of reduction of availability: single exponential, inactivation at −20 mV; for Amount of τ1 component / Amount of τ2 component / τ1 of block development / τ2 of block development: double exponential fit
Method: as §1, §2
Association (k on in µM^−1s^−1) and dissociation rates (k off in s^−1) were estimated from the slope and the y-intercept of a linear regression where the inverse of the fast time constants (1/τ) was plotted against the drug concentration [D] (Kuo et al., 1997). 1/τ=koff+kon∗[D] (9)
The corresponding dissociation constants were calculated according to: Kd=koff/kon (10)
Next, a set of experiments was performed to describe the time course of block development. The protocol is illustrated in Figure 7D. Briefly, after channel activation from a holding potential of −140 mV for control, ample time for full recovery at the holding potential was provided. Thereafter, the channels were inactivated for a variable duration (range: 25 ms–30 s) at a potential of −20 mV. Immediately before the test-pulse, channels were allowed to recover once more at the holding potential to eliminate or minimize the impact from fast inactivation. For evaluation, the current amplitudes obtained for test-pulses were related to their controls. […] For further evaluation, data were normalized with respect to control values (Figure 7B). […] The on-rate (k on ) was directly taken from the slope of the linear regression and the off-rate (k off ) was given by the y-intercept (Eq. 9, 10). For estimating the affinity for the inactivated state, the K i values were separately calculated for each cell according to the relation K i = k off /k on .
FIGURE 7 Time-dependent interaction. […] (B) Data from A, normalized with respect to control. […] Kon and koff values were taken from the slope and the y-intercept of the linear regression, respectively. […] (D) Experimental scheme. Starting from a holding potential of −140 mV, first a control pulse to […] was executed. Thereafter, ample time (2 s) was given to allow for full recovery before channels were inactivated for a variable duration at −20 mV. The test-pulse was carried out after a short recovery at −140 mV. For evaluation, test-pulse amplitudes were related to their controls.
FIGURE 15 Time-dependent interaction of imipridone derivatives.

[8] = molecular target: T2, hNav1.5_I408W_L409C_A410W (WCW mutant) (Homo sapiens, UniProt Q14524, A410W/I408W/L409C); assay: Open channel block, persistent current of inactivation-deficient WCW mutant; assay type: cell-based; details: for Hill-coefficient: persistent current
T2 construct: expressed in transfected cells; host or cells: tsA201 (HEK293 derivative)
Method: as §1, §2, §3

hNav1.5 [9] = molecular target: T1, hNav1.5; details: 40 µM (highest concentration tested); holding potential −140 mV; 30 s preincubation
Method: as §1
Unless otherwise stated, the membrane potential was held at −140 mV from which channel activations were elicited by brief depolarizing pulses to −20 mV of 5 ms duration. In order to minimize voltage errors, the series resistance was compensated up to 80%. […]

hNav1.5 F1760K mutant = hNav1.5 F1760K mutant (Homo sapiens, UniProt Q14524, F1760K, form not given); details: inactivated channels
Method: as §1, §3

hNav1.5 N406C mutant = hNav1.5 N406C mutant (Homo sapiens, UniProt Q14524, N406C); details: inactivated channels
Method: as §1, §3

SMILES: Cc1ccccc1CN1C(=O)C2=C(CCN(Cc3ccccc3)C2)N2CCN=C12 [TIC10]
- potential of half-maximal slow inactivation (hNav1.5 [1]; 10 µM, 10 s pre-pulses, control −42.9 ± 5.0 mV): −92.7 ± 7.0 mV
- slope of slow inactivation curve (hNav1.5 [1]; 10 µM, control 21.5 ± 2.7 mV): 12.8 ± 0.9 mV
- availability (remaining current amplitude) at pre-pulse potential 0 mV (hNav1.5 [1]; 10 µM, control 45.6 ± 10.9%): 4.7 ± 2.8%
- inhibition at 10 µM (hNav1.5 [1]; read-out: inhibition normalized to control at 0 mV): 89.7 ± 6.5%
- inhibition at 10 µM (hNav1.5 [1]; read-out: inhibition normalized to control at −40 mV): 88.3 ± 5%
- Hill-coefficient n (hNav1.5 [2]): 1.2 ± 0.1
- Amount of τ1 component (hNav1.5 [3]; 10 s inactivation): 36.3 ± 16.0%
- Amount of τ2 component (hNav1.5 [3]; 10 s inactivation): 62.2 ± 15.7%
- τ1 for recovery from slow-inactivation (hNav1.5 [3]; 10 s inactivation): 128.1 ± 80.3 ms
- τ2 for recovery from slow-inactivation (hNav1.5 [3]; 10 s inactivation): 548.4 ± 287.4 ms
- proportion of fast recovering channels (hNav1.5 [3]; 500 ms inactivation at −20 mV, recovery at −140 mV, control 92.6 ± 4.0%): 75.6 ± 7.0%
- recovery time constant τ1 (hNav1.5 [3]; control 1.4 ± 0.6 ms): 2.3 ± 1.2 ms
- recovery time constant τ2 (hNav1.5 [3]; control 23.6 ± 12.0 ms): 267.6 ± 73.1 ms
- current amplitude in the presence of TIC10 compared to control (hNav1.5 [4]; 10 µM, holding potential −90 mV, depolarization to −20 mV): about half of its size
- slope (k) of activation curve (hNav1.5 [4]; in the presence of 10 µM, control 7.2 ± 0.6 mV): 7.9 ± 0.8 mV
- potential of half-maximal activation (midpoint of activation curve) (hNav1.5 [4]; in the presence of 10 µM, control −43.1 ± 2.9 mV): −44.8 ± 2.8 mV
- slope of fast inactivation curve (hNav1.5 [5]; in the presence of 10 µM, 5.3 ± 0.9 mV in the absence): 5.4 ± 0.9 mV
- maximal plasma concentration [6]: 4.3 µM
- remaining current at the longest inactivation time (hNav1.5 [7]; 2.5 µM, control 59.2 ± 7.7%): 46.0 ± 4.8%
- time constant of reduction of availability (hNav1.5 [7]; 2.5 µM, control 10.1 ± 2.0 s): 5.3 ± 1.9 s
- remaining current at the longest inactivation time (hNav1.5 [7]; 10 µM): 16.9 ± 6.4%
- time constant of reduction of availability (hNav1.5 [7]; 10 µM): 2.0 ± 0.8 s
- Hill-coefficient [8]: 0.9 ± 0.1
- effect on transient current (resting state) ([8]; up to 40 µM): hardly affected
- remaining current (of control) (hNav1.5 [9]): 93.2 ± 4.3%
- Hill-coefficient (hNav1.5 F1760K mutant; F1760K mutant): 1.5 ± 0.1
- reduction of affinity of F1760K mutant compared to wild type (hNav1.5 F1760K mutant): more than 20 fold
- Hill-coefficient (hNav1.5 N406C mutant): 1.2 ± 0.1

SMILES: O=C1C2=C(CCN(Cc3ccccc3)C2)N2CCN=C2N1Cc1ccc(C(F)(F)F)cc1 [ONC212]
- IC50 (hNav1.5 [2]; after 20 s inactivation at −20 mV, short recovery at −140 mV, wild type, read-out: half-maximal inhibition (IC50), representing the affinity for the inactivated state (Ki)): 2500 ± 700 nM
- Hill-coefficient n (hNav1.5 [2]): 1.5 ± 0.1
- shift of midpoints of fast inactivation (hNav1.5 [5]; 10 µM, 500 ms pre-pulses, corrected for drug independent shift): −4.7 ± 0.4 mV and −4.7 ± 0.42 mV
- Amount of τ1 component (hNav1.5 [7]; 2.5 µM): 8.8 ± 4.5%
- Amount of τ2 component (hNav1.5 [7]; 2.5 µM): 57.4± 6.6%
- τ1 of block development (hNav1.5 [7]; 2.5 µM): 0.2 ± 0.06 s
- τ2 of block development (hNav1.5 [7]; 2.5 µM): 4.6 ± 0.95 s
- Amount of τ1 component (hNav1.5 [7]; 10 µM): 45.2 ± 6.5%
- Amount of τ2 component (hNav1.5 [7]; 10 µM): 46.9 ± 7.2%
- τ1 of block development (hNav1.5 [7]; 10 µM): 0.1 ± 0.03 s
- τ2 of block development (hNav1.5 [7]; 10 µM): 2.2 ± 0.27 s
- Hill-coefficient [8]: 1.4 ± 0.2
